Reference: the supplement of paper PMC10657565
± gives the uncertainty stated by the source.

Experiments:
Assay in all cases: relative cell viability vs DMSO control (% of DMSO control); higher = less growth inhibition (higher viability)
Conditions in all cases: treatment time: 72 h
HCC1806 = tested on: HCC1806
Protocol: (§1)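 Breast cancer cell lines (BT-474, HCC1806, SUM-159, SKBR-3) were seeded in triplicate in 96-well plates and treated 24 h after seeding with kinase inhibitors at 8 doses (3 nM to 30 uM). After 72 h, viability was read by CellTiter-Glo luminescence. Values were averaged over replicates and normalised to DMSO-only (0.1%) controls on each plate to give relative viability (% of DMSO).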

BT-474 = tested on: BT-474
Protocol: as §1

SUM159 = tested on: SUM159
Protocol: as §1

SKBR3 = tested on: SKBR3
Protocol: as §1

| Compound | relative cell viability (HCC1806; 0.003 µM) | relative cell viability (HCC1806; 0.01 µM) | relative cell viability (HCC1806; 0.03 µM) | relative cell viability (HCC1806; 0.1 µM) | relative cell viability (HCC1806; 0.3 µM) | relative cell viability (HCC1806; 1 µM) | relative cell viability (HCC1806; 3 µM) | relative cell viability (HCC1806; 30 µM) | relative cell viability (BT-474; 0.003 µM) | relative cell viability (BT-474; 0.01 µM) | relative cell viability (BT-474; 0.03 µM) | relative cell viability (BT-474; 0.1 µM) | relative cell viability (BT-474; 0.3 µM) | relative cell viability (BT-474; 1 µM) | relative cell viability (BT-474; 3 µM) | relative cell viability (BT-474; 30 µM) | relative cell viability (SUM159; 0.003 µM) | relative cell viability (SUM159; 0.01 µM) | relative cell viability (SUM159; 0.03 µM) | relative cell viability (SUM159; 0.1 µM) | relative cell viability (SUM159; 0.3 µM) | relative cell viability (SUM159; 1 µM) | relative cell viability (SUM159; 3 µM) | relative cell viability (SUM159; 30 µM) | relative cell viability (SKBR3; 0.003 µM) | relative cell viability (SKBR3; 0.01 µM) | relative cell viability (SKBR3; 0.03 µM) | relative cell viability (SKBR3; 0.1 µM) | relative cell viability (SKBR3; 0.3 µM) | relative cell viability (SKBR3; 1 µM) | relative cell viability (SKBR3; 3 µM) | relative cell viability (SKBR3; 30 µM) |
| --- | --- | --- | --- | --- | --- | --- | --- | --- | --- | --- | --- | --- | --- | --- | --- | --- | --- | --- | --- | --- | --- | --- | --- | --- | --- | --- | --- | --- | --- | --- | --- | --- |
| CNS(=O)(=O)Nc1nccc(Cc2c(C)c3ccc(Oc4ncccn4)cc3oc2=O)c1F | 90 ± 7.3 | 86.2 ± 1.2 | 78.5 ± 0.86 | 77.8 ± 2.5 | 74.9 ± 3.6 | 75.1 ± 5.3 | 73.7 ± 3.6 | 72.8 ± 4.9 | 98.4 ± 1.4 | 94.3 ± 1.5 | 97.2 ± 2.2 | 94.9 ± 5.3 | 92.8 ± 2.1 | 87.6 ± 5.1 | 87.6 ± 1.8 | 41.6 ± 2.2 |  |  |  |  |  |  |  |  |  |  |  |  |  |  |  |  |
| Cn1nccc1Nc1nccc(-c2ccn([C@H](CO)c3ccc(Cl)c(F)c3)c(=O)c2)n1 [GDC-0994] | 97.15 ± 0.91 | 94.8 ± 2.7 | 92 ± 4.1 | 88.3 ± 6.2 | 81.5 ± 3.2 | 81.6 ± 4 | 84.9 ± 3.7 | 73.5 ± 2.6 | 102 ± 6.2 | 101 ± 6.1 | 97.6 ± 7.6 | 94.3 ± 3.5 | 95.3 ± 5 | 97.8 ± 9.2 | 101 ± 11 | 88.4 ± 6.7 |  |  |  |  |  |  |  |  |  |  |  |  |  |  |  |  |
| Cc1nc(Nc2n[nH]c3c2CN(C(=O)N[C@H](CN(C)C)c2ccccc2)C3(C)C)c2sccc2n1 | 66.9 ± 11 | 46.3 ± 6 | 36.2 ± 1.9 | 32.5 ± 1.8 | 29.6 ± 1.5 | 19.4 ± 1.2 | 4.75 ± 0.17 | 2.8 ± 0.096 | 96.3 ± 2.5 | 92.7 ± 4.8 | 89.7 ± 3.5 | 86.5 ± 2.5 | 82.6 ± 5.6 | 70 ± 6.6 | 44 ± 2.3 | 21.3 ± 0.7 |  |  |  |  |  |  |  |  |  |  |  |  |  |  |  |  |
| Cc1ccc(-n2nc(C(C)(C)C)cc2NC(=O)NCc2cc(F)ccc2Oc2ccc3c(cnn3CCO)c2)cc1 [Pexmetinib] | 98.7 ± 2.1 | 100 ± 3.3 | 102 ± 4.9 | 105 ± 5.4 | 106 ± 4.4 | 102 ± 3.3 | 88.3 ± 4.1 | 12.7 ± 1.3 | 116 ± 3.7 | 118 ± 3 | 119 ± 1.9 | 118 ± 4.1 | 116 ± 6.1 | 110 ± 5 | 105 ± 3.3 | 28 ± 0.44 |  |  |  |  |  |  |  |  |  |  |  |  |  |  |  |  |
| CN1CCN(c2nc(C3=C(c4c[nH]c5ccccc45)C(=O)NC3=O)c3ccccc3n2)CC1 [Sotrastaurin] | 101 ± 2.4 | 98.3 ± 3.2 | 100 ± 1.9 | 103 ± 2.2 | 103 ± 3.5 | 104 ± 3.6 | 103 ± 1.9 | 43.3 ± 5.5 | 111 ± 4.3 | 108 ± 9.6 | 104 ± 15 | 99.8 ± 21 | 91 ± 26 | 84.5 ± 32 | 76.8 ± 29 | 42.4 ± 18 |  |  |  |  |  |  |  |  |  |  |  |  |  |  |  |  |
| C[C@]12O[C@H](C[C@]1(O)CO)n1c3ccccc3c3c4c(c5c6ccccc6n2c5c31)CNC4=O [Lestaurtinib] | 83.42 ± 0.79 | 63.1 ± 3 | 43.6 ± 5.3 | 16 ± 0.76 | 7.81 ± 0.93 | 3.73 ± 0.28 | 2.9 ± 0.12 | 0.918 ± 0.075 | 87.8 ± 1.5 | 77.2 ± 3.4 | 73.6 ± 4.1 | 66.8 ± 7.2 | 59.5 ± 2.3 | 49.5 ± 2.6 | 37.9 ± 0.67 | 1.31 ± 0.099 |  |  |  |  |  |  |  |  |  |  |  |  |  |  |  |  |
| Cc1c(F)cc(C(=O)NC2CC2)cc1-c1ccc(C(=O)NCC(C)(C)C)cn1 [Losmapimod] |  |  |  |  |  |  |  |  |  |  |  |  |  |  |  |  | 98.8 ± 3 | 97.2 ± 1.3 | 98 ± 7 | 99 ± 5.2 | 92.7 ± 2.7 | 91.5 ± 5 | 87.5 ± 2.5 | 68.5 ± 3.9 | 105 ± 4.8 | 102 ± 7 | 101 ± 5.5 | 95.9 ± 5.4 | 95.9 ± 5.7 | 93 ± 4.7 | 93.4 ± 2.4 | 73.6 ± 2.7 |
